From ChEMBL document CHEMBL2203282, “1,4-naphthoquinone cations as antiplasmodial agents: hydroxy-, acyloxy-, and alkoxy-substituted analogues” (ACS Med Chem Lett, 2012)

Tested on: Plasmodium falciparum
Experiment: Antiplasmodial activity against chloroquine-resistant Plasmodium falciparum W2 infected in human erythrocytes assessed as reduction in parasitemia after 48 hrs by flow cytometry analysis
Format: functional, organism-based
Conditions: W2, 48 h

| SMILES | IC50 [nM] |
| --- | --- |
| O=C1C(OCCCCCC[P+](c2ccccc2)(c2ccccc2)c2ccccc2)=C(C2CCCCC2)C(=O)c2ccccc21 | 47.9 |
| CC(=O)OC1=C(CCCCCCCCCC[P+](c2ccccc2)(c2ccccc2)c2ccccc2)C(=O)c2ccccc2C1=O | 3590 |
| CC1=C(OCCC[n+]2ccn(C)c2)C(=O)c2ccccc2C1=O | 165 |
| CC(=O)OC1=C(c2ccc(OCCCC[P+](c3ccccc3)(c3ccccc3)c3ccccc3)cc2)C(=O)c2ccccc2C1=O | 5440 |
| CC1=C(OC(=O)CCC[P+](c2ccccc2)(c2ccccc2)c2ccccc2)C(=O)c2ccccc2C1=O | 4600 |
| COc1ccc(C2=C(OCCC[P+](c3ccccc3)(c3ccccc3)c3ccccc3)C(=O)c3ccccc3C2=O)cc1 | 17.4 |
| CC1=C(OCCC[n+]2ccccc2)C(=O)c2ccccc2C1=O | 167 |
| O=C1C=C(OCCC[P+](c2ccccc2)(c2ccccc2)c2ccccc2)C(=O)c2ccccc21 | 40 |
| C[C@@H]1CC[C@H]2[C@@H](C)C(=O)O[C@@H]3O[C@@]4(C)CC[C@@H]1[C@]32OO4 [ARTEMISININ] | 18.1 |
| CC1=C(OCCC[P+](c2ccccc2)(c2ccccc2)c2ccccc2)C(=O)c2ccccc2C1=O | 41.9 |
| CCCCCCCCCCC1=C(OC(C)=O)C(=O)c2ccccc2C1=O | 392 |
| CC(=O)OC1=C(CCCCC[P+](c2ccccc2)(c2ccccc2)c2ccccc2)C(=O)c2ccccc2C1=O | 1900 |
| CCCCCCCCCCC1=C(C)C(=O)c2ccccc2C1=O | > 10000 |
| O=C1C=C(OCCCCCC[P+](c2ccccc2)(c2ccccc2)c2ccccc2)C(=O)c2ccccc21 | 28.5 |
| CC1=C(OCCCCCC[P+](c2ccccc2)(c2ccccc2)c2ccccc2)C(=O)c2ccccc2C1=O | 42.7 |
| CC(=O)OC1=C(c2ccc(OCCCCCCCCCC[P+](c3ccccc3)(c3ccccc3)c3ccccc3)cc2)C(=O)c2ccccc2C1=O | 7120 |

| SMILES | IC50 [nM] |
| --- | --- |
| O=C1C(Cc2ccc(Cl)cc2)=C(OCCCCCC[P+](c2ccccc2)(c2ccccc2)c2ccccc2)C(=O)c2ccccc21 | 49.5 |
| O=C1C(O)=C(CCCCCCCCCC[P+](Cc2ccccc2)(Cc2ccccc2)Cc2ccccc2)C(=O)c2ccccc21 | 3280 |
| O=C1C(O)=C(c2ccc(OCCCCCCCCCC[P+](c3ccccc3)(c3ccccc3)c3ccccc3)cc2)C(=O)c2ccccc21 | 6640 |
| O=C1C(Cc2ccccc2)=C(OCCC[P+](c2ccccc2)(c2ccccc2)c2ccccc2)C(=O)c2ccccc21 | 46.7 |
| O=C1C(O)=C(c2ccc(OCCC[P+](c3ccccc3)(c3ccccc3)c3ccccc3)cc2)C(=O)c2ccccc21 | 6730 |
| O=C1C(O)=C([C@H]2CC[C@H](c3ccc(Cl)cc3)CC2)C(=O)c2ccccc21 [ATOVAQUONE] | 0.5 |
| O=C1C(O)=C(CCCCCCCCCC[P+](c2ccccc2)(c2ccccc2)c2ccccc2)C(=O)c2ccccc21 | 2180 |
| O=C1C(O)=C(CCCCC[P+](c2ccccc2)(c2ccccc2)c2ccccc2)C(=O)c2ccccc21 | 4080 |
| O=C1C(OCCC[P+](c2ccccc2)(c2ccccc2)c2ccccc2)=C(C2CCCCC2)C(=O)c2ccccc21 | 42.3 |
| O=C1C(Cc2ccccc2)=C(OCCCCCC[P+](c2ccccc2)(c2ccccc2)c2ccccc2)C(=O)c2ccccc21 | 49.1 |
| CCCCCCCCCCC1=C(O)C(=O)c2ccccc2C1=O | 339 |
| CC1=C(OC(=O)CCCCCCCCCC[P+](c2ccccc2)(c2ccccc2)c2ccccc2)C(=O)c2ccccc2C1=O | 1380 |
| CCCC[P+](CCCC)(CCCC)CCCCCCCCCCC1=C(O)C(=O)c2ccccc2C1=O | 3860 |
| CC1=C(OCC(=O)OCCC[P+](c2ccccc2)(c2ccccc2)c2ccccc2)C(=O)c2ccccc2C1=O | 1230 |
| CC1=C(OCCCCCCCCCC[P+](c2ccccc2)(c2ccccc2)c2ccccc2)C(=O)c2ccccc2C1=O | 119 |
